# Test system: KLK-5
# Assay: Inhibition of the synthesis of KLK-5 secreted by normal human keratinocytes in an environment mimicking rosacea (IL-17 + Vit. D induction, ELISA on supernatants, normalized to MTT cell viability)
# Format: cell-based
# Conditions: Keratinocyte, NHK, 48 hours, induced with IL-17 10 ng/ml + Vit. D 10-7 mol/L, 1 mM calcium, positive control
# Protocol: NHKs originating from LONZA (France) were used in this study.
# The culture conditions are as follows: • Cell type: NHK donor PP12 • Culture medium: KBM+Lonza supplements=KGM • Seeding density: 15,000 cells/well in 96-well plates with 100 μl of medium.
# The conditions for induction of the synthesis of KLK-5 are as follows: • Presence of 1 mM of calcium • Inducer mix: (see Table 1) IL-17 at 10 ng/ml+Vit. D at 10-7 mol/L • Processing time: 48 hours • Positive control of induced KLK5 inhibition: Dexamethasone at 1 μM
# The quantification of KLK-5 in the supernatants is carried out using an Enzyme Linked Immunosorbent Assay (ELISA) (Ref: DY8459-05, R&D Systems, France) with the reagents recommended by the manufacturer (DuoSet Ancillary Reagent Kit 2, Ref: DY008, R&D Systems, France) and used according to the manufacturer's instructions.
# The optical density (OD) is read with a spectrophotometer at 450 nm. The concentration of KLK-5 is calculated from the standard range (15.6 to 1000 pg/ml) established with the recombinant human protein of KLK-5.
# A dilution of the supernatants to 1/50th is mandatory so that the samples are not out of range. […]
# MTT is a soluble yellow dye which is metabolized by mitochondrial enzymes (succinate dehydrogenase) into a dark blue compound: formazan. The formazan crystals are then dissolved in DMSO then the optical density is measured spectrophotometrically at 540 nm. […]
smiles,measurement,value
C[C@@H]1C[C@H]2[C@@H]3CCC4=CC(=O)C=C[C@]4(C)[C@@]3(F)[C@@H](O)C[C@]2(C)[C@@]1(O)C(=O)CO [dexamethasone],inhibition at 1 µM,16.6%

# From US11813350B2, “Composition for the treatment of rosacea and/or telangiectasia” (NAOS INSTITUTE OF LIFE SCIENCE, priority 2020, dated 2023)
